This passage reports IC50 results from patent publication US20260285863A1, “COMPOUNDS CAPABLE OF MODULATING GPR65” (Pathios Therapeutics Limited, priority 2023, published 2026).

This assay has as its target T1, human recombinant GPR65 (Homo sapiens, UniProt Q8IYL9).
T1 construct: host or cells: 1321N1 human astrocytoma cells (1321N1-hrGPR65)
Kind of assay: Human GPR65 cAMP HTRF antagonist assay. The class given is cell-based. To be noted: 1321N1-hrGPR65 cells, assay pH 7.2, cAMP HTRF; read-out: hGPR65 IC50. An excerpt: The “Human GPR65 cyclic adenosine monophosphate (cAMP) Homogeneous Time Resolved Fluorescence (HTRF) antagonist assay”, or simply “cAMP assay”, as described in the accompanying examples, can be used to measure the potency of GPR65 modulators, which is expressed as the concentration of compound required to reduce the increase in cAMP concentration upon GPR65 activation by 50% (i.e. an IC50).
Human GPR65 Cyclic Adenosine Monophosphate (cAMP) Homogeneous Time Resolved Fluorescence (HTRF) Antagonist Assay Procedure
IC50data was obtained by the following procedure:
1321N1 human astrocytoma cells stably expressing human recombinant GPR65 (1321N1-hrGPR65 cells, EuroscreenFast) were cultured according to the vendor's instructions.
Compounds were tested for their ability to antagonise GPR65, through measuring the concentration of cytoplasmic cAMP following treatment of the cells at a pH of 7.2 to activate GPR65 signalling and addition of the compound to be tested. The extent to which the expected rise in cAMP concentration upon GPR65 activation was suppressed by the added compound is indicative of its potency. The assay was carried out according to EuroscreenFast assay Methodology as follows.
On the day of the assay, test compounds were added to 384-well, low volume, white microtiter plates by acoustic dispensing. KRH buffer (5 mM KCl, 1.25 mM MgSO4, 124 mM NaCl, 25 mM HEPES, 13.3 mM Glucose, 1.25 mM KH2PO4 and 1.45 mM CaCl2) was adjusted to pH 6.5, pH 7.6 and pH 8.4 by adding NaOH. 1321N1-hGPR65 cells were rapidly thawed and diluted in KRH, pH 7.6 prior to centrifugation at 300×g for 5 min and resuspension in assay buffer (KRH, pH 7.6, supplemented with 1 mM 3-isobutyl-1-methylxanthine (IBMX) and 200 μM ethylenediaminetetraacetic acid (EDTA)). Cells were added to assay plates at a density of 2,000 cells per well in a volume of […]. Assay plates were briefly centrifuged at 100×g and then incubated at room temperature for 30 min. Cells were stimulated by the addition of 5 μL KRH, pH 6.5, to achieve an assay pH of 7.2, while control wells received […] KRH, pH 8.4 to achieve an assay pH of 7.9. Assay plates were briefly centrifuged at 100×g and then incubated at room temperature for 30 min.
Accumulation of cAMP was detected by cAMP HTRF kit (Cisbio). d2-labeled cAMP and cryptate-labeled anti-cAMP antibody in Lysis and Detection Buffer (Cisbio) were added to assay plates, and the plates were incubated at room temperature for 1 h. HTRF measurements were performed using a Pherastar FSX instrument. Acceptor and donor emission signals were measured at 665 nm and 620 nm, respectively, and HTRF ratios were calculated as signal665 nm/signal620 nm×104. Data were normalised to high and low control values and fitted with 4-parameter logistic regression to determine hGPR65 IC50 values for the test compounds, which are shown in Table 1.
(Time-resolved FRET reads energy transfer from a long-lived donor to a nearby acceptor.)

SMILES strings stand for the structures. Some results are limits rather than exact numbers.

One may read the IC50 as the point on the concentration scale where inhibition reaches its midpoint.

T1 sequence (Q8IYL9 whole entry): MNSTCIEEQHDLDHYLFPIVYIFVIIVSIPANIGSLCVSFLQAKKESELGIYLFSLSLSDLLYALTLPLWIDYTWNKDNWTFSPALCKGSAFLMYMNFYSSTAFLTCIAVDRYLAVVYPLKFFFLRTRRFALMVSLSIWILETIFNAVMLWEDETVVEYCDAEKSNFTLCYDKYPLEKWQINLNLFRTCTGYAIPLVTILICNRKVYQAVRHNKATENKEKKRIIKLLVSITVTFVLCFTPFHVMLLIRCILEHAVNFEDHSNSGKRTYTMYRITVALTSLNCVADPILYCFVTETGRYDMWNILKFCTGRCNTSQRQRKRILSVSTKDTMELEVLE

Regarding `O=C(Nc1cc(Cl)c(-c2cnc(OCC(F)(F)F)c(F)c2)cc1F)N1[C@H]2CC[C@@H]1c1c[nH]c(=O)cc1C2` [Compound 11, (6S,9R)-N-(5-chloro-2-fluoro-4-(5-fluoro-6-(2,2,2-trifluoroethoxy)pyridin-3-yl)phenyl)-3-oxo-3,5,6,7,8,9-hexahydro-2H-6,9-epiminocyclohepta[c]pyridine-10-carboxamide], the concentration for half-maximal inhibition (IC50) is less than 500 nM.
For `O=C(Nc1cc(Cl)c(-c2ccc3nonc3c2)cn1)N1[C@H]2CC[C@@H]1C(F)(F)c1c2ccnc1F` [Compound 73, (5S,8R)-N-(5-(Benzo[c][1,2,5]oxadiazol-5-yl)-4-chloropyridin-2-yl)-1,9,9-trifluoro-6,7,8,9-tetrahydro-5H-5,8-epiminocyclohepta[c]pyridine-10-carboxamide], the half-inhibitory concentration (IC50) was 500 to 5000 nM.
`O=C(Nc1ccc(Cl)cc1F)N1[C@H]2CC[C@@H]1c1ccnc(F)c1C2` [Compound 46, (5R,8S)-N-(4-chloro-2-fluorophenyl)-1-fluoro-6,7,8,9-tetrahydro-5H-5,8-epiminocyclohepta[c]pyridine-10-carboxamide]: the half-maximal inhibitory concentration (IC50) was less than 500 nM.
Under `O=C(Nc1cc(Cl)c(C(F)(F)F)cc1F)N1[C@H]2CC[C@@H]1c1ccncc1C2` [Compound 50, (5R,8S)-N-(5-chloro-2-fluoro-4-(trifluoromethyl)phenyl)-6,7,8,9-tetrahydro-5H-5,8-epiminocyclohepta[c]pyridine-10-carboxamide] stands less than 500 nM.
Next, `CN1CCC(Oc2ccc(-c3cc(F)c(NC(=O)N4[C@H]5CC[C@@H]4c4c[nH]c(=O)cc4C5)cc3Cl)cn2)C1` (some centres unmarked) [Compound 62]: 500 to 5000 nM; `O=C(Nc1cc(Cl)c(-c2ccc(OC[C@H]3CCOC3)nc2)cc1F)N1[C@H]2CC[C@@H]1c1n[nH]c(=O)cc1C2` [Compound 80, (6S,9R)-N-(5-Chloro-2-fluoro-4-(6-(((S)-tetrahydrofuran-3-yl)methoxy)pyridin-3-yl)phenyl)-3-oxo-3,5,6,7,8,9-hexahydro-2H-6,9-epiminocyclohepta[c]pyridazine-10-carboxamide]: less than 500 nM.
Under `O=C(Nc1cc(Cl)c(COc2ccc(OCC(F)(F)F)cn2)cc1F)N1[C@H]2CC[C@@H]1c1n[nH]c(=O)cc1C2` [Compound 55, (6S,9R)-N-(5-Chloro-2-fluoro-4-(((5-(2,2,2-trifluoroethoxy)pyridin-2-yl)oxy)methyl)phenyl)-3-oxo-3,5,6,7,8,9-hexahydro-2H-6,9-epiminocyclohepta[c]pyridazine-10-carboxamide] stands less than 500 nM; under `CC(C)(C)OC(=O)N1CCC(Oc2ccc(-c3cc(F)c(NC(=O)N4[C@H]5CC[C@@H]4c4c[nH]c(=O)cc4C5)cc3Cl)cn2)C1` (stereo partly drawn) [Compound 25, tert-Butyl 3-((5-(2-chloro-5-fluoro-4-((6S,9R)-3-oxo-3,5,6,7,8,9-hexahydro-2H-6,9-epiminocyclohepta[c]pyridine-10-carboxamido)phenyl)pyridin-2-yl)oxy)pyrrolidine-1-carboxylate], less than 500 nM.
For the compound `O=C(Nc1cc(Cl)c(-c2ccc(OCC3(F)CC3)nc2)cc1F)N1[C@H]2CC[C@@H]1c1n[nH]c(=O)cc1C2` [Compound 86, (6S,9R)-N-(5-Chloro-2-fluoro-4-(6-((1-fluorocyclopropyl)methoxy)pyridin-3-yl)phenyl)-3-oxo-3,5,6,7,8,9-hexahydro-2H-6,9-epiminocyclohepta[c]pyridazine-10-carboxamide], the concentration for half-maximal inhibition (IC50) was less than 500 nM.
In the case of `Cc1nc2cc(-c3cc(F)c(NC(=O)N4[C@H]5CC[C@@H]4c4c[nH]c(=O)cc4C5)cc3Cl)ccc2[nH]1` [Compound 68, (6S,9R)-N-(5-chloro-2-fluoro-4-(2-methyl-1H-benzo[d]imidazol-5-yl)phenyl)-3-oxo-3,5,6,7,8,9-hexahydro-2H-6,9-epiminocyclohepta[c]pyridine-10-carboxamide], the IC50 fell in the range of 500 to 5000 nM.
Regarding `O=C(Nc1cc(Cl)c(C(F)(F)F)cn1)N1C2CCC1[C@H](F)c1c2ccnc1F` (mixture of isomers) [Compound 33, (±)(9S)-N-(4-chloro-5-(trifluoromethyl)pyridin-2-yl)-1,9-difluoro-6,7,8,9-tetrahydro-5H-5,8-epiminocyclohepta[c]pyridine-10-carboxamide], the IC50 is less than 500 nM.
Consider `Cc1nc2cc(-c3cc(F)c(NC(=O)N4[C@H]5CC[C@@H]4c4c[nH]c(=O)cc4C5)cc3Cl)ccc2n1C` [Compound 19, (6S,9R)-N-(5-chloro-4-(1,2-dimethyl-1H-benzo[d]imidazol-5-yl)-2-fluorophenyl)-3-oxo-3,5,6,7,8,9-hexahydro-2H-6,9-epiminocyclohepta[c]pyridine-10-carboxamide], for which the concentration for half-maximal inhibition (IC50) was in the range of 500 to 5000 nM.
Next, `O=C(Nc1cc(Cl)c(COc2cccc(OCC(F)(F)F)n2)cc1F)N1[C@H]2CC[C@@H]1c1n[nH]c(=O)cc1C2` [Compound 56, (6S,9R)-N-(5-chloro-2-fluoro-4-(((6-(2,2,2-trifluoroethoxy)pyridin-2-yl)oxy)methyl)phenyl)-3-oxo-3,5,6,7,8,9-hexahydro-2H-6,9-epiminocyclohepta[c]pyridazine-10-carboxamide]: less than 500 nM.
Regarding `O=C(Nc1cc(Cl)c(-c2ccc(Nc3cc(Cl)c(-c4ccc(OCC(F)(F)F)nc4)cc3F)nc2)cc1F)N1[C@H]2CC[C@@H]1c1n[nH]c(=O)cc1C2` [Compound 92, (6S,9R)-N-(5-Chloro-4-(6-((5-chloro-2-fluoro-4-(6-(2,2,2-trifluoroethoxy)pyridin-3-yl)phenyl)amino)pyridin-3-yl)-2-fluorophenyl)-3-oxo-3,5,6,7,8,9-hexahydro-2H-6,9-epiminocyclohepta[c]pyridazine-10-carboxamide], the IC50 was less than 500 nM.
In the case of `O=C(Nc1cc(Cl)c(Cl)cc1F)N1[C@H]2CC[C@@H]1c1cc[n+]([O-])cc1C2` [Compound 66, (5R,8S)-10-((4,5-dichloro-2-fluorophenyl)carbamoyl)-6,7,8,9-tetrahydro-5H-5,8-epiminocyclohepta[c]pyridine 2-oxide], the IC50 was less than 500 nM.
For the compound `O=C(Nc1cc(Cl)c(-c2ccc(OC[C@H]3CC3(F)F)nc2)cc1F)N1[C@H]2CC[C@@H]1c1n[nH]c(=O)cc1C2` [Compound 81, (6S,9R)-N-(5-Chloro-4-(6-(((R)-2,2-difluorocyclopropyl)methoxy)pyridin-3-yl)-2-fluorophenyl)-3-oxo-3,5,6,7,8,9-hexahydro-2H-6,9-epiminocyclohepta[c]pyridazine-10-carboxamide], the IC50 is less than 500 nM.
Next, `O=C(Nc1cc(Cl)c(-c2ccc3nonc3c2)cn1)N1[C@@H]2CC[C@H]1c1ccnc(F)c1[C@H]2F` [Compound 75, (5S,8R,9R)-N-(5-(Benzo[c][1,2,5]oxadiazol-5-yl)-4-chloropyridin-2-yl)-1,9-difluoro-6,7,8,9-tetrahydro-5H-5,8-epiminocyclohepta[c]pyridine-10-carboxamide]: less than 500 nM; `CN(CC(F)(F)F)c1ccc(-c2cc(F)c(NC(=O)N3[C@H]4CC[C@@H]3c3c[nH]c(=O)cc3C4)cc2Cl)cn1` [Compound 8, (6S,9R)-N-(5-chloro-2-fluoro-4-(6-(methyl(2,2,2-trifluoroethyl)amino)pyridin-3-yl)phenyl)-3-oxo-3,5,6,7,8,9-hexahydro-2H-6,9-epiminocyclohepta[c]pyridine-10-carboxamide]: less than 500 nM; `O=C(Nc1cc(Cl)c(-c2ccc(OCC(F)(F)F)nc2)cc1F)N1[C@H]2CC[C@@H]1C(F)(F)c1c2ccnc1F` [Compound 72, (5S,8R)-N-(5-Chloro-2-fluoro-4-(6-(2,2,2-trifluoroethoxy)pyridin-3-yl)phenyl)-1,9,9-trifluoro-6,7,8,9-tetrahydro-5H-5,8-epiminocyclohepta[c]pyridine-10-carboxamide]: less than 500 nM.
`O=C1c2ccc(NC(=O)N3[C@H]4CC[C@@H]3c3n[nH]c(=O)cc3C4)cc2C(=O)N1c1ccc(OCC(F)(F)F)nc1` [Compound 91, (6S,9R)-N-(1,3-Dioxo-2-(6-(2,2,2-trifluoroethoxy)pyridin-3-yl)isoindolin-5-yl)-3-oxo-3,5,6,7,8,9-hexahydro-2H-6,9-epiminocyclohepta[c]pyridazine-10-carboxamide]: the IC50 lay in the range of 500 to 5000 nM.
